Data as given in PubChem BioAssay AID1259407 (Chemical Carcinogenesis Research Information System (CCRIS), 2018).
The source made the active and inactive calls. The rule behind the calls is not given here.

System: CCRIS mutagenicity, Ames/micronucleus/aberration tests
Test: CCRIS mutagenicity studies
[1] = Test System: AMES SALMONELLA TYPHIMURIUM, Strain/Indicator: TA98, Metabolic Activation: NONE, Method: STANDARD PLATE
[2] = Test System: AMES SALMONELLA TYPHIMURIUM, Strain/Indicator: TA100, Metabolic Activation: NONE, Method: STANDARD PLATE
[3] = Test System: AMES SALMONELLA TYPHIMURIUM, Strain/Indicator: TA100, Metabolic Activation: S-9, Method: STANDARD PLATE
[4] = Test System: AMES SALMONELLA TYPHIMURIUM, Strain/Indicator: TA1535, Metabolic Activation: NONE, Method: STANDARD PLATE

SMILES: CCCN(C(=O)CCCl)c1snc2ccccc12
- mutagenic call [1]: inactive; negative
- mutagenic call (Test System: AMES SALMONELLA TYPHIMURIUM, Strain/Indicator: TA98, Metabolic Activation: S-9, Method: STANDARD PLATE): inactive; negative
- mutagenic call [2]: inactive; negative
- mutagenic call [3]: inactive; negative
- mutagenic call [4]: active; positive
- mutagenic call (Test System: AMES SALMONELLA TYPHIMURIUM, Strain/Indicator: TA1535, Metabolic Activation: S-9, Method: STANDARD PLATE): active; positive
- mutagenic call (Test System: AMES SALMONELLA TYPHIMURIUM, Strain/Indicator: TA1537, Metabolic Activation: NONE, Method: STANDARD PLATE): inactive; negative
- mutagenic call (Test System: AMES SALMONELLA TYPHIMURIUM, Strain/Indicator: TA1537, Metabolic Activation: S-9, Method: STANDARD PLATE): inactive; negative

SMILES: CC(=O)c1ccc(NO)cc1
- mutagenic call [2]: active; positive
- mutagenic call [4]: inactive; negative
- mutagenic call (Test System: E. COLI, Strain/Indicator: WP2 UVRA(P), Metabolic Activation: NONE, Method: STANDARD PLATE): active; positive
- mutagenic call (Test System: E. COLI, Strain/Indicator: WP2 UVRA, Metabolic Activation: NONE, Method: FLUCTUATION TEST): inactive; negative
- mutagenic call (Test System: E. COLI, Strain/Indicator: WP2 UVRA, Metabolic Activation: NONE, Method: STANDARD PLATE): active; positive

SMILES: C=C(C)C1CO1 (stereo unspecified)
- mutagenic call [1]: inactive; negative
- mutagenic call [2]: inactive; negative

SMILES: O=[N+]([O-])c1ccc2c(c1)nc(/C=N/OCc1ccccc1[N+](=O)[O-])n2Cc1ccc(Cl)cc1Cl
- mutagenic call [1]: active; positive
- mutagenic call (Test System: AMES SALMONELLA TYPHIMURIUM, Strain/Indicator: TA98, Metabolic Activation: RAT, LIVER, S-9, PHENOBARBITAL AND BETA-NAPHTHOFLAVONE, Method: STANDARD PLATE): active; positive
- mutagenic call [2]: active; positive
- mutagenic call (Test System: AMES SALMONELLA TYPHIMURIUM, Strain/Indicator: TA100, Metabolic Activation: RAT, LIVER, S-9, PHENOBARBITAL AND BETA-NAPHTHOFLAVONE, Method: STANDARD PLATE): active; positive

SMILES: CC(=O)CC(=O)Nc1ccccc1
- mutagenic call (End Point: In vitro chromosomal aberrations, Test System: Chinese hamster lung (CHL/IU) cells, Metabolic Activation: Rat, Liver, S9, Phenobarbital and 5,6-benzoflavone): inactive; negative
- mutagenic call (Test System: AMES SALMONELLA TYPHIMURIUM, Strain/Indicator: TA97, Metabolic Activation: HAMSTER, LIVER, S-9, AROCLOR 1254 (10%), Method: PREINCUBATION): inactive; negative
- mutagenic call (Test System: AMES SALMONELLA TYPHIMURIUM, Strain/Indicator: TA97, Metabolic Activation: HAMSTER, LIVER, S-9, AROCLOR 1254 (30%), Method: PREINCUBATION): inactive; negative
- mutagenic call (Test System: AMES SALMONELLA TYPHIMURIUM, Strain/Indicator: TA97, Metabolic Activation: NONE, Method: PREINCUBATION): inactive; negative
- mutagenic call (Test System: AMES SALMONELLA TYPHIMURIUM, Strain/Indicator: TA97, Metabolic Activation: RAT, LIVER, S-9, AROCLOR 1254 (10%), Method: PREINCUBATION): inactive; negative
- mutagenic call (Test System: AMES SALMONELLA TYPHIMURIUM, Strain/Indicator: TA97, Metabolic Activation: RAT, LIVER, S-9, AROCLOR 1254 (30%), Method: PREINCUBATION): inactive; negative
- mutagenic call (Test System: AMES SALMONELLA TYPHIMURIUM, Strain/Indicator: TA98, Metabolic Activation: HAMSTER, LIVER, S-9, AROCLOR 1254 (10%), Method: PREINCUBATION): inactive; negative
- mutagenic call (Test System: AMES SALMONELLA TYPHIMURIUM, Strain/Indicator: TA98, Metabolic Activation: HAMSTER, LIVER, S-9, AROCLOR 1254 (30%), Method: PREINCUBATION): inactive; negative
- mutagenic call (Test System: AMES SALMONELLA TYPHIMURIUM, Strain/Indicator: TA98, Metabolic Activation: NONE, Method: PREINCUBATION): inactive; negative
- mutagenic call (Test System: AMES SALMONELLA TYPHIMURIUM, Strain/Indicator: TA98, Metabolic Activation: RAT, LIVER, S-9, AROCLOR 1254 (10%), Method: PREINCUBATION): inactive; negative
- mutagenic call (Test System: AMES SALMONELLA TYPHIMURIUM, Strain/Indicator: TA98, Metabolic Activation: RAT, LIVER, S-9, AROCLOR 1254 (30%), Method: PREINCUBATION): inactive; negative
- mutagenic call (Test System: AMES SALMONELLA TYPHIMURIUM, Strain/Indicator: TA100, Metabolic Activation: HAMSTER, LIVER, S-9, AROCLOR 1254 (10%), Method: PREINCUBATION): inactive; negative
- mutagenic call (Test System: AMES SALMONELLA TYPHIMURIUM, Strain/Indicator: TA100, Metabolic Activation: HAMSTER, LIVER, S-9, AROCLOR 1254 (30%), Method: PREINCUBATION): inactive; negative
- mutagenic call (Test System: AMES SALMONELLA TYPHIMURIUM, Strain/Indicator: TA100, Metabolic Activation: NONE, Method: PREINCUBATION): inactive; negative
- mutagenic call (Test System: AMES SALMONELLA TYPHIMURIUM, Strain/Indicator: TA100, Metabolic Activation: RAT, LIVER, S-9, AROCLOR 1254 (10%), Method: PREINCUBATION): inactive; negative
- mutagenic call (Test System: AMES SALMONELLA TYPHIMURIUM, Strain/Indicator: TA100, Metabolic Activation: RAT, LIVER, S-9, AROCLOR 1254 (30%), Method: PREINCUBATION): inactive; negative
- mutagenic call (Test System: AMES SALMONELLA TYPHIMURIUM, Strain/Indicator: TA1535, Metabolic Activation: HAMSTER, LIVER, S-9, AROCLOR 1254 (10%), Method: PREINCUBATION): inactive; negative
- mutagenic call (Test System: AMES SALMONELLA TYPHIMURIUM, Strain/Indicator: TA1535, Metabolic Activation: HAMSTER, LIVER, S-9, AROCLOR 1254 (30%), Method: PREINCUBATION): inactive; negative
- mutagenic call (Test System: AMES SALMONELLA TYPHIMURIUM, Strain/Indicator: TA1535, Metabolic Activation: NONE, Method: PREINCUBATION): inactive; negative
- mutagenic call (Test System: AMES SALMONELLA TYPHIMURIUM, Strain/Indicator: TA1535, Metabolic Activation: RAT, LIVER, S-9, AROCLOR 1254 (10%), Method: PREINCUBATION): inactive; negative
- mutagenic call (Test System: AMES SALMONELLA TYPHIMURIUM, Strain/Indicator: TA1535, Metabolic Activation: RAT, LIVER, S-9, AROCLOR 1254 (30%), Method: PREINCUBATION): inactive; negative
- mutagenic call (Test System: Ames Salmonella typhimurium, Strain/Indicator: TA98, Metabolic Activation: None, Method: Preincubation): inactive; negative
- mutagenic call (Test System: Ames Salmonella typhimurium, Strain/Indicator: TA98, Metabolic Activation: Rat, Liver, S9, Sodium phenobarbital and 5,6-benzoflavone (10%), Method: Preincubation): inactive; negative
- mutagenic call (Test System: Ames Salmonella typhimurium, Strain/Indicator: TA100, Metabolic Activation: None, Method: Preincubation): inactive; negative
- mutagenic call (Test System: Ames Salmonella typhimurium, Strain/Indicator: TA100, Metabolic Activation: Rat, Liver, S9, Sodium phenobarbital and 5,6-benzoflavone (10%), Method: Preincubation): inactive; negative
- mutagenic call (Test System: Ames Salmonella typhimurium, Strain/Indicator: TA1535, Metabolic Activation: None, Method: Preincubation): inactive; negative
- mutagenic call (Test System: Ames Salmonella typhimurium, Strain/Indicator: TA1535, Metabolic Activation: Rat, Liver, S9, Sodium phenobarbital and 5,6-benzoflavone (10%), Method: Preincubation): inactive; negative
- mutagenic call (Test System: Ames Salmonella typhimurium, Strain/Indicator: TA1537, Metabolic Activation: None, Method: Preincubation): inactive; negative
- mutagenic call (Test System: Ames Salmonella typhimurium, Strain/Indicator: TA1537, Metabolic Activation: Rat, Liver, S9, Sodium phenobarbital and 5,6-benzoflavone (10%), Method: Preincubation): inactive; negative
- mutagenic call (Test System: E. coli, Strain/Indicator: WP2uvrA/pKM101, Metabolic Activation: None, Method: Preincubation): active; positive
- mutagenic call (Test System: E. coli, Strain/Indicator: WP2uvrA/pKM101, Metabolic Activation: Rat, Liver, S9, Sodium phenobarbital and 5,6-benzoflavone (10%), Method: Preincubation): active; positive

SMILES: c1ccc2c(COCC3CO3)cccc2c1 (stereo unspecified)
- mutagenic call [2]: active; positive
- mutagenic call [4]: active; positive

SMILES: CNCCN(Cc1ccc(OC)cc1)c1ccccn1
- mutagenic call (Test System: AMES SALMONELLA TYPHIMURIUM, Strain/Indicator: TA97, Metabolic Activation: NONE, Method: STANDARD PLATE): inactive; negative
- mutagenic call (Test System: AMES SALMONELLA TYPHIMURIUM, Strain/Indicator: TA97, Metabolic Activation: RAT, LIVER, S-9, AROCLOR 1254, Method: STANDARD PLATE): inactive; negative
- mutagenic call [1]: inactive; negative
- mutagenic call (Test System: AMES SALMONELLA TYPHIMURIUM, Strain/Indicator: TA98, Metabolic Activation: RAT, LIVER, S-9, AROCLOR 1254, Method: STANDARD PLATE): inactive; negative
- mutagenic call [2]: inactive; negative
- mutagenic call (Test System: AMES SALMONELLA TYPHIMURIUM, Strain/Indicator: TA100, Metabolic Activation: RAT, LIVER, S-9, AROCLOR 1254, Method: STANDARD PLATE): inactive; negative
- mutagenic call (Test System: AMES SALMONELLA TYPHIMURIUM, Strain/Indicator: TA102, Metabolic Activation: NONE, Method: STANDARD PLATE): inactive; negative
- mutagenic call (Test System: AMES SALMONELLA TYPHIMURIUM, Strain/Indicator: TA102, Metabolic Activation: RAT, LIVER, S-9, AROCLOR 1254, Method: STANDARD PLATE): inactive; negative

SMILES: O=C(N=c1sn(C(=O)c2ccc(Cl)c(Cl)c2)c2ccc([N+](=O)[O-])cc12)c1ccc(Cl)c(Cl)c1
- mutagenic call [3]: active; positive
